Measurements from patent US20260263402A1, “SYNERGISTIC COMBINATIONS OF REGULATED NECROSIS INHIBITORS WITH N-ACETYLCYSTEINE” (priority 2022, published 2026).

Legend:
[1] = test system: SH-SY5Y cells; experiment: Cell viability (MTS) of SH-SY5Y cells treated with erastin (ferroptosis), neurotoxicity model; type: cell-based, Human; conditions: 10 μM erastin 24 h
Experimental: (§1) The SH-SY5Y neuronal cells (Human Neuroblastoma Cell line) and HT-22 cells (Mouse Hippocampal Neuronal Cell line) were maintained in standard DMEM with GlutaMAX medium (GIBCO), supplemented with 10% fetal bovine serum (GIBCO), at 37° C. in presence of 5% CO2.
(§2) SH-SY5Y, LLC-PK1, ARPE-19 and HT22 cells were seeded in 96-well plates at a density of 10 000 or 5000 cells per well respectively, following overnight incubation. Cells were treated with 10 μM (SH-SY5Y cells) or 0.5 μM (HT22 cells) of erastin or 2 μM of RSL3 (LLCPK1) or 10 mM of sodium iodate (ARPE-19 cells) for 24 h.
(§3) Erastin and RSL3 was purchased from Selleck Chemical and sodium iodate from Sigma Aldrich. Cell viability was assessed by MTS assay (CellTiter 96@D AQueous Non-Radioactive Cell Proliferation Assay; Promega, Fitchburg, WI, USA) according to the manufacturer's instructions. This assay is based on the reduction of the 3-(4,5-dimethylthiazol-2-yl)-5-(3-carboxymethoxyphenyl)-2-(4-sulfophenyl)-2H-tetrazolium (MTS) by viable cells to form a colored formazan product. After treatment, cells were incubated 3 h at 37° C., 5% CO2 with MTS. The absorbance was measured using a microplate reader at 490 and 630 nm and the percentage of viability was calculated by dividing the absorbance of testing compound by the absorbance of DMSO treated cells (control).
(§4) Cells (HT-22, SHSY-5Y, LLC-PK1 and ARPE 19) were seeded in a 96-well plate in their respective medium overnight. The next day they were treated with NAC or a derivative thereof including NACA or N-acetylcysteine ethyl ester (compound A), with inhibitor compound (compound B) or with a combination of the two compounds. The analysis of the effects of the combination of the association of compound A (NAC or a derivative thereof including NACA and N-acetylcysteine ethyl ester) with another compound B is based on the independence model of Bliss. In this approach, the effect of compound alone (EA or EB) or in combination is expressed as a probability (0≤E≤1). The combined effect of the compounds is defined by:
(§5) wherein EA and EB represent the effects of compound A and compound B respectively, and EAB the combined effect of the combination of A and B (expected effect on histogram). Calculation index CI is calculated as follows: CI=(EA+EB−EA*EB)/EAB wherein CI is synergistic, antagonistic or additive when CI is under, above or equal to 1 respectively [Duarte et al., Current Research in Pharmacology and Drug Discovery, 2022].
Cell death by ferroptosis was induced by erastin [Dixon et al., Cell, 2012, 149(5), 1060-1072] in both cell lines. Erastin is a well described ferroptosis inducer and also a molecular tool to study neuronal pathologies [Lewerenz et al., Front. Neurosci., 2018, 12: 214].

[2] = test system: HT-22 cells; experiment: Cell viability (MTS) of HT22 cells treated with erastin (ferroptosis), neurotoxicity model; type: cell-based, Mouse; conditions: 0.5 μM erastin 24 h
Experimental: as §1, §2, §3
Cells (HT-22, SHSY-5Y, LLC-PK1 and ARPE 19) were seeded in a 96-well plate in their respective medium overnight. […] In this approach, the effect of compound alone (EA or EB) or in combination is expressed as a probability (0≤E≤1). […]
as §5, with “2022]. […]” for “2022].”

[3] = test system: LLC-PK1 cells; experiment: Cell viability (MTS) of LLC-PK1 cells treated with RSL3; type: cell-based, Pig; conditions: 2 μM RSL3 24 h
Experimental: The LLC-PK1 cells (Pig Kidney Epithelial cells) were cultured in DMEM/F12(GIBCO), supplemented with 10% fetal bovine serum (GIBCO), at 37° C. in presence of 5% CO2.
as §2, §3
Cells (HT-22, SHSY-5Y, LLC-PK1 and ARPE 19) were seeded in a 96-well plate in their respective medium overnight. The next day they were treated with NAC or a derivative thereof including NACA or N-acetylcysteine ethyl ester (compound A), with inhibitor compound (compound B) or with a combination of the two compounds. […] In this approach, the effect of compound alone (EA or EB) or in combination is expressed as a probability (0≤E≤1). […]
as §5

[4] = test system: mice model of APAP intoxication; experiment: In vivo mice model of APAP intoxication, plasma ALT; parameters: species or system C57Bl/6J male mice; conditions: for ALT plasma level: 8 h after APAP, APAP only ~3000, control ~100 IU/L
Experimental: Nine-week-old C57Bl/6J male mice were purchased from Janvier Labs (Le Genest St Isle, France). After one week of acclimatization in the animal house, mice were fasted overnight before experimentation. Acetaminophen (APAP) was purchased from Sigma-Aldrich (A70-85-100 g, batch #SCLF8273) and diluted at 20 mg/mL in PBS (preheated at 45° C.). Acetaminophen intoxication was induced in mice by intraperitoneal (i.p.) injection of APAP (400 mg/kg). One hour after APAP injection, mice were treated with inhibitors by intraperitoneal injection. N-acetylcysteine (NAC, A9165-25 g, Sigma-Aldrich, batch #SLCJ1628), the reference treatment for paracetamol intoxication, was diluted at 40 mg/mL in PBS Tween80 5% and injected via intraperitoneal route at a dose of 200 mg/kg. Compound 7 was diluted at 1 mg/ml or 2 mg/ml in PBS Tween80 5% and injected by intraperitoneal injection with increasing concentrations (2.5, 5 or 10 mg/kg) or in combination with NAC (200 mg/kg). There were two groups of control mice: the first one was injected via i.p. route with PBS Tween80 5% (Tween80 5%) and the second group, treated with APAP, was administered one hour after APAP with PBS Tween80 5% (APAP-Tween80 5%) via i.p.. Mice were slaughtered eight hours after APAP injection. Blood and liver were collected.
Serum alanine aminotransferase (ALT) plasma levels were measured according to the International Federation of Clinical Chemistry and Laboratory Medicine primary reference procedures using an Olympus AU2700 Autoanalyser (Olympus Optical).
Results were expressed as means SEM. Mean differences between two experimental groups were assessed using the non-parametric Mann-Whitney U-test. […] Calculated P values are integrated on histograms and graphs. Significance is shown as follows: $ P<0.05, $$ P<0.01, $$$ P<0.001 and $$$ P<0.0001 (comparison between APAP mice and APAP mice treated with NAC and/or compound 7); * P<0.05, ** P<0.01, *** P<0.001 and **** P<0.0001 (comparison between treated groups).
Nine Groups of Mice were Studied: • Tween80 5%, n=15 • APAP (400 mg/kg)+Tween 80 5%, n=31 • APAP (400 mg/kg)+NAC (200 mg/kg), n=15 • APAP (400 mg/kg)+compound 7 (2.5 mg/kg), n=23 • APAP (400 mg/kg)+compound 7 (5 mg/kg), n=21 • APAP (400 mg/kg)+compound 7 (10 mg/kg), n=21 • APAP (400 mg/kg)+compound 7 (2.5 mg/kg)+(NAC 200 mg/kg), n=9 • APAP (400 mg/kg)+compound 7 (5 mg/kg)+NAC (200 mg/kg), n=9 • APAP (400 mg/kg)+compound 7 (10 mg/kg)+NAC (200 mg/kg), n=13

[5] = test system: ARPE-19 cells; experiment: Cell viability (MTS) of ARPE-19 cells treated with sodium iodate, model of eye disease; type: cell-based, Human; conditions: 10 mM sodium iodate 24 h
Experimental: The ARPE-19 cells (Human Retinal pigment epithelial cell line) were cultured in standard DMEM/F12 medium (GIBCO), supplemented with 10% fetal bovine serum (GIBCO), at 37° C. in presence of 5% CO2.
as §2, §3, §4, §5
Age-related macular degeneration, or AMD, is characterized by vision loss caused by degeneration of the central cells of the retina, called the macula. […] One model used to study retinal cell death is that of human ARPE-19 cells, a retinal pigment epithelial cell line, in the presence of sodium iodate (NaIO3, a potent oxidizing agent) [Hanus et al. Cell Death Discov. 2016, 2, 16054][Chan et al., J. Biomed. Sci., 2019, 26:40].

[6] = NAC 200 mg/kg with compound 7 10 mg/kg i.p. one hour after APAP 400 mg/kg

Oc1ccc(-c2cc3ccccc3[nH]2)cc1 [Compound 1]
effect on viability, combined with NAC (Bliss model) ([1]; FIG. 4, 1 μM cmpd 1 + 100 μM NAC): synergistic effect | effect on viability, compound alone ([1]; FIG. 4, 1 μM cmpd 1 alone): significant effect | effect on viability, combined with N-acetylcysteine ethyl ester (Bliss model) ([1]; FIG. 15, 2.5 μM Compound 1 + 100 μM N-acetylcysteine ethyl ester): synergistic effect | effect on viability, compound alone ([1]; FIG. 15, 2.5 μM Compound 1 alone): significant effect | effect on viability, combined with NAC (Bliss model) ([2]; FIG. 7, 5 μM cmpd 1 + 100 μM NAC): synergistic effect | effect on viability, combined with NAC (Bliss model) ([3]; FIG. 11, 1 μM Compound 1 + 500 μM NAC): synergistic effect

Oc1ccc(-c2cc3cccnc3[nH]2)cc1 [Compound 7, sibiriline]
effect on viability, combined with N-acetylcysteine ethyl ester (Bliss model) ([1]; FIG. 14, 10 μM Compound 7 + 100 μM N-acetylcysteine ethyl ester): synergistic effect | effect on viability, compound alone ([1]; FIG. 14, 10 μM Compound 7 alone): significant effect | effect on viability, combined with NAC (Bliss model) ([2]; FIG. 5, 25 μM cmpd 7 + 100 μM NAC): synergistic effect | effect on viability, combined with NAC (Bliss model) ([3]; FIG. 10, 2.5 μM Compound 7 + 500 μM NAC): synergistic effect | protective effect against APAP toxicity, combination versus NAC alone or compound 7 alone ([4]; NAC 200 mg/kg in combination with compound 7 2.5, 5 or 10 mg/kg i.p., FIG. 9a-c): better and synergistic protective effect | protection against APAP toxicity [4, 6]: almost complete protection | ALT plasma level [4, 6]: ~ 200 IU/L | ALT plasma level ([4]; compound 7 10 mg/kg i.p. one hour after APAP 400 mg/kg i.p.): ~ 1000 IU/L | effect on ALT plasma levels, compound alone ([4]; compound 7 2.5, 5 or 10 mg/kg i.p. one hour after APAP 400 mg/kg, maximum effect at 10 mg/kg): reducing ALT plasma levels in a dose-dependent manner

Oc1ccc(-c2cc3ccc(Cl)nc3[nH]2)cc1 [Compound 37]
effect on viability, combined with NAC (Bliss model) ([2]; FIG. 6, 50 μM cmpd 37 + 100 μM NAC): synergistic effect

NCCOCCOc1ccc(-c2cc3cccnc3[nH]2)cc1 [Compound 45]
effect on viability, combined with NAC (Bliss model) ([5]; FIG. 1, 10 μM cmpd 45 + 100 μM NAC): synergistic effect | effect on viability, compound alone ([5]; FIG. 1, 10 μM cmpd 45 alone): significant effect

COc1cc(O)c2c(c1)OC(O)(c1ccc(OCc3ccccc3)cc1)CC2=O (stereo not shown) [Compound 46]
effect on viability, combined with NAC (Bliss model) ([5]; FIG. 2, 5 μM cmpd 46 + 50 μM NAC): synergistic effect | effect on viability, compound alone ([5]; FIG. 2, 5 μM cmpd 46 alone): significant effect | effect on viability, combined with NACA (Bliss model) ([5]; FIG. 13, 10 μM cmpd 46 + 125 μM NACA): synergistic effect | effect on viability, compound alone ([5]; FIG. 13, 10 μM cmpd 46 alone): significant effect | effect on viability, combined with NAC (Bliss model) ([1]; FIG. 3, 25 μM cmpd 46 + 100 μM NAC): synergistic effect | effect on viability, compound alone ([1]; FIG. 3, 25 μM cmpd 46 alone): significant effect | effect on viability, combined with N-acetylcysteine ethyl ester (Bliss model) ([1]; FIG. 16, 25 μM Compound 46 + 100 μM N-acetylcysteine ethyl ester): synergistic effect | effect on viability, compound alone ([1]; FIG. 16, 25 μM Compound 46 alone): significant effect | effect on viability, combined with NAC (Bliss model) ([3]; FIG. 12, 25 μM Compound 46 + 500 μM NAC): synergistic effect

CC(=O)N[C@@H](CS)C(=O)O [NAC, N-acetylcysteine]
ALT plasma level ([4]; NAC 200 mg/kg i.p. one hour after APAP 400 mg/kg i.p.): ~ 1300 IU/L
